Assay: xn = mol fraction of the nth substance listed
Conditions: 101.3 kPa, Liquid

CC(=O)O [acetic acid] + O
Conditions	mass density, 293.15 K [kg/m3]	mass density, 298.15 K [kg/m3]	mass density, 303.15 K [kg/m3]	speed of sound, 293.15 K [m/s]	speed of sound, 298.15 K [m/s]	speed of sound, 303.15 K [m/s]	viscosity, 293.15 K [mPa·s]	viscosity, 298.15 K [mPa·s]	viscosity, 303.15 K [mPa·s]
x1 = 0.0503	1019.37	1017.24	1014.94	1528	1533	1537	1.304	1.151	1.023
x1 = 0.1009	1034.95	1032.04	1029.02	1537	1536	1535	1.578	1.385	1.226
x1 = 0.2018	1053.88	1050	1046.07	1509	1502	1494	2.031	1.777	1.571
x1 = 0.3006	1063.42	1058.83	1054.2	1465	1454	1443	2.355	2.053	1.809
x1 = 0.4015	1068.15	1063.42	1058.66	1418	1405	1392	2.559	2.232	1.965
x1 = 0.5012	1069.68	1064.77	1059.78	1373	1359	1344	2.652	2.316	2.046
x1 = 0.6005	1068.8	1063.48	1058.24	1329	1314	1299	2.627	2.3	2.029
x1 = 0.7004	1066.55	1061.22	1055.91	1286	1270	1254	2.417	2.129	1.89
x1 = 0.8017	1062.78	1057.34	1051.9	1243	1226	1210	2.077	1.85	1.656
x1 = 0.8996	1057.35	1051.8	1046.25	1199	1183	1166	1.666	1.503	1.367
x1 = 0.9523	1053.56	1047.96	1042.35	1175	1157	1140	1.416	1.294	1.19
x1 = 1	1049.3	1043.65	1038	1149	1132	1115	1.211	1.115	1.034

Reference: the NIST ThermoML archive (doi:10.1021/je0342825)
